Laboratory results published in publication PMC3466118 (Journal of medicinal chemistry, 2011).

Key:
[1] = test system: acetylation of histone H4 in retinoic acid-differentiated SH-SY5Y cells; assay: Acetylation of H4 in differentiated SH-SY5Y cells; type: cell-based, human; settings: 1 μM, also in cells stressed with compound 30
[2] = test system: retinoic acid-differentiated SH-SY5Y neuroblastoma cells; assay: Cytotoxicity in unstressed differentiated SH-SY5Y cells; type: cell-based, human; settings: 0.5–50 μM, 24 h, XTT
[3] = test system: retinoic acid differentiated SH-SY5Y human neuroblastoma cells treated with 30; assay: Neuroprotection assay, cells stressed with compound 30; type: cell-based; settings: for Neuroprotective effect: differentiated SH-SY5Y cells stressed with 100 μM of 30, 24 h, XTT
[4] = test system: acetylation of p53 in HepG2 cells; assay: Western blot, acetylation of p53 in HepG2 cells; type: cell-based, human; settings: HepG2 total cell extracts
[5] = test system: HepG2, Hela and SH-SY5Y carcinoma cell lines; assay: Antiproliferative activity across the three carcinoma cell lines; type: cell-based; settings: Homo sapiens, read-out: EC50–48 h, span over the three cell lines
[6] = test system: cleavage of caspase 3 in HepG2 cells; assay: Western blot, activation/cleavage of caspase 3 in HepG2 cells; type: cell-based, human
recombinant human HDAC8 [7] = molecular target: T1, recombinant human HDAC8 (Homo sapiens, UniProt Q9BY41); assay: HDAC8 inhibition, fluorescent substrate Fluor de Lys
T1 sequence (Q9BY41 1-377): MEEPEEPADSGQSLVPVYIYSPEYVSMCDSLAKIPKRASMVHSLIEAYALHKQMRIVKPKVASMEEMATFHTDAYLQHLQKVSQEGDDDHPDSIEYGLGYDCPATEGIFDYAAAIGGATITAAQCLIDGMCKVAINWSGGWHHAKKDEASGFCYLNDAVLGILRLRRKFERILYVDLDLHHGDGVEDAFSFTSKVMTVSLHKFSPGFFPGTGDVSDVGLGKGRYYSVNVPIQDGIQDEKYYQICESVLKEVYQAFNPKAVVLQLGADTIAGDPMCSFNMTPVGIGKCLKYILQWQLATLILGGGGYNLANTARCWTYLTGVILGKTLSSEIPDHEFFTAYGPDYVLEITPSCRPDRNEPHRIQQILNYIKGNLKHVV

[8] = molecular target: recombinant human HDAC3/NCoR2 (Homo sapiens, UniProt O15379); assay: HDAC3 inhibition, fluorescent substrate Boc-L-Lys
recombinant human HDAC3/NCoR2, sequence (O15379 whole entry): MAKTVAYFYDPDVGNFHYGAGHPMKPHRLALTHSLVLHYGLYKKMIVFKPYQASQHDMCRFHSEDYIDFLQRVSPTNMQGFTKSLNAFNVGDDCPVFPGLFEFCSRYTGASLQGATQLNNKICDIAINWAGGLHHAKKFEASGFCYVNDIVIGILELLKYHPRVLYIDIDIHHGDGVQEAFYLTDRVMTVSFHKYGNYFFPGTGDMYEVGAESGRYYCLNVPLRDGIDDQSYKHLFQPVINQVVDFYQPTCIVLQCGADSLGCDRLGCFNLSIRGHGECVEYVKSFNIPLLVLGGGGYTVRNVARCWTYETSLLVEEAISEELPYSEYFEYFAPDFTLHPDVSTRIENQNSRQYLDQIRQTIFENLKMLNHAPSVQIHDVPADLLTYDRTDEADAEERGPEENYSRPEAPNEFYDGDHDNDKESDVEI
recombinant human HDAC3/NCoR2, sequence (Q9Y618 395-489 partner limits assumed): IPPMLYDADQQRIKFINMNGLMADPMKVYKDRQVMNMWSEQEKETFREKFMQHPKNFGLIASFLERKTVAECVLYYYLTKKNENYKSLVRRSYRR

recombinant human HDAC8 [9] = molecular target: T1, recombinant human HDAC8; settings: cited from earlier work

[N-]=[N+]=Nc1ccc(-c2cc(C(=O)NCCCCCCC(=O)NO)no2)cc1 [2a, 5-(4-Azidophenyl)isoxazole-3-carboxylic acid(6-hydroxycarbamoylhexyl)amide]
Hyperacetylation of histone H4 [1]: induce hyperacetylation of histone H4
Cytotoxicity to differentiated neuroblastoma cells [2]: not overly cytotoxic
Neuroprotective effect [3]: protect cells from stress induced by compound 30 at low micromolar concentrations

[N-]=[N+]=NCc1cc(N=[N+]=[N-])cc(C(=O)Nc2ccc(-c3cc(C(=O)NCCCCCCC(=O)NO)no3)cc2)c1 [2b, 5-[4-(3-Azido-5-azidomethylbenzoylamino)phenyl]isoxazole-3-carboxylic acid (6-hydroxycarbamoylhexyl)amide]
Hyperacetylation of histone H4 [1]: induce hyperacetylation of histone H4
Acetylation of p53 [4]: neither SAHA nor 2b induced additional time and dose-dependent hyperacetylation of p53
EC50 [5]: 11 to 32 µM
Cleavage of caspase 3 [6]: induced cleavage of caspase 3 by 14 h with maximum activation at 24 h
Neuroprotective effect [3]: protect cells from stress induced by compound 30 at low micromolar concentrations

[N-]=[N+]=Nc1ccc(Cn2cc(NC(=O)CCCCCCC(=O)NO)cn2)cc1 [3c, Octanedioic acid [1-(4-azidobenzyl)-1H-pyrazol-4-yl]amide hydroxyamide]
Cytotoxicity to differentiated neuroblastoma cells [2]: not toxic to the cells
Fold better potency than 3a, HDAC8 (recombinant human HDAC8 [7]; compared with 3a): 2.7 fold
EC50 [5]: 10 to 23 µM
Neuroprotective effect [3]: non-neuroprotective
Fold better potency than 3a, HDAC3 ([8]; compared with 3a): 2.0 fold

[N-]=[N+]=NCc1cc(Cn2cc(NC(=O)CCCCCCC(=O)NO)cn2)cc(N=[N+]=[N-])c1 [3f, Octanedioic acid [1-(3-azido-5-azidomethylbenzyl)-1H-pyrazol-4-yl]amide hydroxyamide]
Hyperacetylation of histone H4 [1]: induce hyperacetylation of histone H4
Cytotoxicity to differentiated neuroblastoma cells [2]: subtle toxicity at 20 μM
Fold more active towards HDAC8 than HDAC3 (selectivity) (recombinant human HDAC8 [7]; HDAC8 vs HDAC3): 8 fold
EC50 [5]: 24 to 36 µM
Cell survival relative to vehicle ([3]; 0.5 and 1 μM, differentiated SH-SY5Y cells stressed with 100 μM of 30): more than doubles the amount of cell survival
Neuroprotective effect [3]: protect cells from stress induced by compound 30 at low micromolar concentrations
IC50 ratio compound/SAHA, HDAC3 [8]: ND ^e 4.74

[N-]=[N+]=NCc1cc(COc2ccc(NC(=O)CCCCCCC(=O)NO)cc2)cc(N=[N+]=[N-])c1 [compound 1]
Fold decrease in HDAC8 inhibitory activity compared to SAHA (recombinant human HDAC8 [9]): 17 fold

O=C(CCCCCCC(=O)Nc1cnn(Cc2ccccc2)c1)NO [3a, Octanedioic acid (1-benzyl-1H-pyrazol-4-yl)amide hydroxyamide]
Cytotoxicity to differentiated neuroblastoma cells [2]: not toxic to the cells
EC50 [5]: 10 to 23 µM
Neuroprotective effect [3]: non-neuroprotective
